From US10744205B2, “Antibody drug conjugates of kinesin spindel protein (KSP) inhibitors with anti-CD123-antibodies” (Bayer Pharma Aktiengesellschaft, priority 2015, dated 2020) come the findings set out here.

A value given as a limit tells only on which side of the number the result lay.

One data set deals with KPL4. Description: Cytotoxicity of metabolites, MTT assay, KPL4. The format is cell-based. (In general: Tetrazolium assays rely on reduction of a dye to a coloured formazan, in cell work by metabolically active cells.)
Data set [1] concerns NCI-H292: human mucoepidermoid lung carcinoma cells. Description: Cytotoxicity of metabolites, MTT assay, NCI-H292. The format is cell-based. Particulars: growth inhibition, 96 h incubation. The method, then: The analysis of the cytotoxic effects of the anti-CD123 ADCs and the corresponding metabolites was carried out with various cell lines:
NCI-H292: human mucoepidermoid lung carcinoma cells, ATCC-CRL-1848, standard medium: RPMI 1640 (Biochrom; # FG1215, stab. glutamine)+10% FCS (Biochrom; # S0415).
The cells were cultivated by the standard method as stated by the American Tissue Culture Collection (ATCC) or the Leibniz-Institut DSMZ-Deutsche Sammlung von Mikroorganismen und Zellkulturen GmbH (DSMZ) for the cell lines in question.
The cells were cultivated according to the standard method using the growth media listed under C-1. The test is carried out by detaching the cells with a solution of Accutase in PBS (Biochrom AG # L2143), pelleting, resuspending in culture medium, counting and sowing into a 96-well culture plate with white bottom (Costar #3610) (NCI H292: 2500 cells/well; MOLM-13: 2000 cells/well; THP-1: 8000 cells/well; KG-1: 5000 cells/well in a total volume of 100 μl). The cells were then incubated in an incubator at 37° C. and 5% carbon dioxide. After 48 h, the medium was replaced.
The antibody drug conjugates or the metabolites in 10 μl of culture medium in concentrations from 10^−5M to 10^−13M were then pipetted to the cells (in triplicate), and the assay was then incubated in an incubator at 37° C. and 5% carbon dioxide. […] To this end, the MTT reagent was incubated with the cells for 4 h, followed by lysis of the cells overnight by addition of the detergent. The dye formed was detected at 570 nm (Infinite M1000 pro, Tecan). The measured data were used to calculate the IC50 of the growth inhibition using the DRC (dose response curve).
The proliferation of cells which were not treated with test substance but were otherwise identically treated was defined as the 100% figure.
Table 2 below lists the IC50 values of representative working examples from the assay described and the corresponding cytotoxicity data (MTT assay).

In the next data set the test system is Caco-2 cells. Kind of data set: Cell permeability, flux assay using Caco-2 cells. Particulars: Caco-2, B to A, 2 hours. The format is in vitro ADME. On the technique in general: Passage across Caco-2 layers is used to estimate intestinal permeability.
Data set [2] deals with T1, motor domain of the human kinesin spindle protein KSP/Eg5 (Homo sapiens, UniProt P52732).
T1 construct: The motor domain of the human kinesin spindle protein KSP/Eg5; purchased tebu-bio/Cytoskeleton Inc 027EG01-XL
T1 sequence (P52732 18-359 limits assumed): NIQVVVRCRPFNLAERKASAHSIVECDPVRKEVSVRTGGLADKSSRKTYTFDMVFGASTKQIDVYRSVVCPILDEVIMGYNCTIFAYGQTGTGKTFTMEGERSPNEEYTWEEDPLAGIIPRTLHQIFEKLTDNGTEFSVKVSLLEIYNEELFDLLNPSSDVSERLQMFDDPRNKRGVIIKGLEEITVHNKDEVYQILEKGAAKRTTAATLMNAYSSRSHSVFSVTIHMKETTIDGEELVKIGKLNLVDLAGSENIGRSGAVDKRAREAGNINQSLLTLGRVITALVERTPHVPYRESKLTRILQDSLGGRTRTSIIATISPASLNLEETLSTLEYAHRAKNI
Kind of data set: Inhibition of the kinesin spindle protein KSP/Eg5 (ATPase activity, malachite green). The format is biochemical. The conditions noted are these: 10 nM KSP/Eg5, microtubuli, 500 μM ATP, 2 h at RT.
Description: C-1b Determination of the Inhibition of the Kinesin Spindle Protein KSP/Eg5 by Selected Examples
The motor domain of the human kinesin spindle protein KSP/Eg5 (tebu-bio/Cytoskeleton Inc, No. 027EG01-XL) was incubated in a concentration of 10 nM with microtubuli (bovine or porcine, tebu-bio/Cytoskeleton Inc) stabilized with 50 μg/ml taxol (Sigma No. T7191-5MG) for 5 min at RT in 15 mM PIPES, pH 6.8 (5 mM MgCl2 and 10 mM DTT, Sigma). […] Incubation was at RT for 2 h. ATPase activity was detected by detecting the inorganic phosphate formed using malachite green (Biomol). […] The positive controls used were monastrol (Sigma, M8515-1 mg) and ispinesib (AdooQ Bioscience A10486). The individual data of the dose-activity curve are eight-fold determinations. The IC50 values are means of two independent experiments.

Data set [3] can be described thus: Cell permeability, flux assay using Caco-2 cells. The format is in vitro ADME. Particulars: human.

The IC50 is the concentration that gives 50% inhibition. Broadly, the Papp B→A is how fast a substance crosses the layer from the basolateral side. As a reminder, the efflux ratio is a quotient of directional permeabilities that is used to spot active efflux.

`CC(C)(C)[C@H](c1cc(-c2cc(F)ccc2F)cn1Cc1ccccc1)N(CC[C@H](N)C(=O)NCCC(=O)N[C@@H](CCC(=O)O)C(=O)O)C(=O)CO` [Example M23, N-{(2S)-2-Amino-4-[{(1R)-1-[1-benzyl-4-(2,5-difluorophenyl)-1H-pyrrol-2-yl]-2,2-dimethylpropyl}(glycoloyl)amino]butanoyl}-beta-alanyl-L-glutamic acid/trifluoroacetic acid (1:1)]: the IC50 is no less than 500 nM with KPL4 (KPL4, growth inhibition) and no less than 500 nM in data set [1] (Homo sapiens, NCI-H292, 96 h).

For “N-{(2S)-2-Amino-4-[{(1R)-1-[1-benzyl-4-(2,5-difluorophenyl)-1H-pyrrol-2-yl]-2,2-dimethyl propyl}(glycoloyl)amino]butanoyl}-L-glutamic acid/trifluoroacetic acid (1:1) [Example M25]”, the IC50 (in the data set with KPL4 (growth inhibition); in data set [1]) was no less than 500 nM each time. Moreover, the “Papp (B-A)” value in the data set with Caco-2 cells is 0.81 ×10⁻⁶ cm/s.

As for “(1R,4R,27R,33R)-1-Amino-32-(3-aminopropyl)-33-[1-benzyl-4-(2,5-difluorophenyl)-1H-pyrrol-2-yl]-34,34-dimethyl-6,9,25,31-tetraoxo-13,16,19,22-tetraoxa-3,29-dithia-7,10,26,32-tetraazapentatriacontane-1,4,27-tricarboxylic acid/trifluoroacetic acid (1:2) [Example M20]”, the IC50 with KPL4 (growth inhibition) amounted to 213 nM; in data set [1], 149 nM.

In turn, `CC(C)(C)[C@H](c1cc(-c2cc(F)ccc2F)cn1Cc1ccccc1)N(CCCN)C(=O)CSC[C@H](NC(=O)CCOCCOCCOCCOCCNC(=O)CNC(=O)[C@H](CC(=O)O)SC[C@H](N)C(=O)O)C(=O)O.O=C(O)C(F)(F)F.O=C(O)C(F)(F)F` [Example M21, (2R,24S,27R)-27-Amino-2-[({2-[(3-aminopropyl){(1R)-1-[1-benzyl-4-(2,5-difluorophenyl)-1H-pyrrol-2-yl]-2,2-dimethylpropyl}amino]-2-oxoethyl}sulphanyl)methyl]-24-(carboxymethyl)-4,20,23-trioxo-7,10,13,16-tetraoxa-25-thia-3,19,22-triazaoctacosane-1,28-dioic acid trifluoroacetic acid (1:2)] displayed an IC50 in data set [2] of 2.31 nM. Moreover, the Papp B→A at 2 h in data set [3] (Caco-2, B to A, 2 hours) worked out at 0.05 ×10⁻⁶ cm/s. The efflux ratio at 2 h in data set [3] (Caco-2, ratio of Papp (B-A) to Papp (A-B)) is 1.5.

Consider `CC(C)(C)[C@H](c1cc(-c2cc(F)ccc2F)cn1Cc1ccccc1)N(CC[C@H](N)C(=O)NCCC(=O)N[C@H](CCC(=O)O)C(=O)O)C(=O)CO` [Example M24, N-{(2S)-2-Amino-4-[{(1R)-1-[1-benzyl-4-(2,5-difluorophenyl)-1H-pyrrol-2-yl]-2,2-dimethylpropyl}(glycoloyl)amino]butanoyl}-beta-alanyl-D-glutamic acid/trifluoroacetic acid (1:1)], for which, in the data set with KPL4 (KPL4, growth inhibition), the IC50 is no less than 500 nM.

`CC(C)(C)[C@H](c1cc(-c2cc(F)ccc2F)cn1Cc1ccccc1)N(CC[C@H](N)C(=O)NCCNC(=O)CN1C(=O)CC(SC[C@H](N)C(=O)O)C1=O)C(=O)CO` (stereo partly drawn) [Example M1, S-[1-(2-{[2-({(2S)-2-Amino-4-[{(1R)-1-[1-benzyl-4-(2,5-difluorophenyl)-1H-pyrrol-2-yl]-2,2-dimethylpropyl}(glycoloyl)amino]butanoyl}amino)ethyl]amino}-2-oxoethyl)-2,5-dioxopyrrolidin-3-yl]-L-cysteine/trifluoroacetic acid (1:1)]: the IC50 with KPL4 (KPL4, growth inhibition) is no less than 500 nM; in data set [1] (Homo sapiens, NCI-H292, 96 h), no less than 500 nM.
